Source: PMC10892041, “Vanadium Complexes with Thioanilide Derivatives of Amino Acids: Inhibition of Human Phosphatases and Specificity in Various Cell Models of Metabolic Disturbances” (Pharmaceuticals, 2024)

What was measured:
PTP1B = target: T1, PTP1B (Homo sapiens, UniProt P18031); assay: Inhibition of human recombinant tyrosine phosphatase PTP1B (DiFMUP fluorescence); format: biochemical; conditions: for Inhibition of PTP1B, percentage of inhibition of the control: 1 µM, control solvent only, SD did not exceed 6%
T1 construct: purchased Sigma-Aldrich
T1 sequence (P18031 1-435): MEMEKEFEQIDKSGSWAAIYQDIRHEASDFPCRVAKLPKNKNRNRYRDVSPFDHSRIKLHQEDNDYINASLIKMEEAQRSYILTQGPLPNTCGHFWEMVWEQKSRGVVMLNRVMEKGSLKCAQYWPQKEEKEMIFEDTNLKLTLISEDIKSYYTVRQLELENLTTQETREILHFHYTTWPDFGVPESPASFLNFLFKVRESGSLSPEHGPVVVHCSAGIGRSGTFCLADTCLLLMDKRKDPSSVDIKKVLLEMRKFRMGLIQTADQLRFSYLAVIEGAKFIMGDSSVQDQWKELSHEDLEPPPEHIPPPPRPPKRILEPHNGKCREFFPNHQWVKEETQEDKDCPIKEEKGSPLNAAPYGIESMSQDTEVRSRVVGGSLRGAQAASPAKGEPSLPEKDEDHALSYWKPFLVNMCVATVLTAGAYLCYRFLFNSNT
In short: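 Human recombinant PTP1B (final 50 ng/mL) in buffer of 25 mM MOPS, 50 mM NaCl, 1 mM DTT and 0.05% Tween-20 (pH 7.0) was dispensed onto test compound in black 384-well plates. After 10 min, DiFMUP was added to 0.1 mM. Plates were incubated 20 min at 23 °C and fluorescence read (ex 355, em 560 nm). Assays were run in triplicate, with inhibition relative to enzyme-plus-vehicle control and IC50 fitted in GraphPad Prism.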

LAR = target: T2, LAR (Homo sapiens, UniProt P10586); assay: Inhibition of human recombinant tyrosine phosphatase LAR (DiFMUP fluorescence); format: biochemical; conditions: for Inhibition of LAR, percentage of inhibition of the control: 1 µM, control solvent only, SD did not exceed 6%
T2 sequence (P10586 1352-1607 limits assumed): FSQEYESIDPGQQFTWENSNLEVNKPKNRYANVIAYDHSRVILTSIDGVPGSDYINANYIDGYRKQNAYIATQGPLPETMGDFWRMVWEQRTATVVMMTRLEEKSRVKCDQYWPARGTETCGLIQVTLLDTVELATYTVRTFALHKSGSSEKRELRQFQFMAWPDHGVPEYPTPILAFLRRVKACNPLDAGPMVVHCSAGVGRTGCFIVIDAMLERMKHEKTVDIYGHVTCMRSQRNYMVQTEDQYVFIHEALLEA
In short: (§1)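 Human recombinant phosphatases (SHP1 400 ng/mL, SHP2 50 ng/mL, LAR 5 ng/mL final) were pre-incubated 10 min with compound in 25 mM MOPS pH 7.0, 50 mM NaCl, 1 mM DTT, 0.05% Tween-20. DiFMUP (0.1 mM final) was added for 20 min at 23 °C and fluorescence read at 355/560 nm. Screening used 1 µM compound (% inhibition vs vehicle); IC50 also reported.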

SHP1 = target: T3, SHP1 (Homo sapiens, UniProt P29350); assay: Inhibition of human recombinant tyrosine phosphatase SHP1 (DiFMUP fluorescence); format: biochemical; conditions: for Inhibition of SHP1, percentage of inhibition of the control: 1 µM, control solvent only, SD did not exceed 6%
T3 construct: purchased Sigma-Aldrich
In short: as §1

SHP2 = target: T4, SHP2 (Homo sapiens, UniProt Q06124); assay: Inhibition of human recombinant tyrosine phosphatase SHP2 (DiFMUP fluorescence); format: biochemical; conditions: for Inhibition of SHP2, percentage of inhibition of the control: 1 µM, control solvent only, SD did not exceed 6%
T4 construct: purchased Sigma-Aldrich
T4 sequence (Q06124 1-593): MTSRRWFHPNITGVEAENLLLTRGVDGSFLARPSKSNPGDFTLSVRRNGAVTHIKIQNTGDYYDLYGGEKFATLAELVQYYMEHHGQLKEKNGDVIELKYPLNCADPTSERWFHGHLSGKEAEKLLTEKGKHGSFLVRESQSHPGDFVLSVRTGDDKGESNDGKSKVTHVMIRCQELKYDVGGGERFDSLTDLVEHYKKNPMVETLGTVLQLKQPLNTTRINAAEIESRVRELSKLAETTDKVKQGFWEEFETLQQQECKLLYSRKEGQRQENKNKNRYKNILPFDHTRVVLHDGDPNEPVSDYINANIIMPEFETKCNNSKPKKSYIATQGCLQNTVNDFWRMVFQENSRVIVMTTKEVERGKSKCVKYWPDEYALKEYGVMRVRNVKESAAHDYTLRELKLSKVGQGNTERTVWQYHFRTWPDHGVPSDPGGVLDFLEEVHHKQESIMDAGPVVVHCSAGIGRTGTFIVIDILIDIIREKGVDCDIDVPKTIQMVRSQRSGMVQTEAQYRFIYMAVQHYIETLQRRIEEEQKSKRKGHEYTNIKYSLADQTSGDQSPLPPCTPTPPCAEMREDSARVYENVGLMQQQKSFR
In short: as §1

CDC25A = target: T5, CDC25A (Homo sapiens, UniProt P30304); assay: Inhibition of human recombinant non-tyrosine phosphatase CDC25A (3-O-methylfluorescein phosphate); format: biochemical
T5 construct: purchased Sigma-Aldrich
T5 sequence (P30304 1-524): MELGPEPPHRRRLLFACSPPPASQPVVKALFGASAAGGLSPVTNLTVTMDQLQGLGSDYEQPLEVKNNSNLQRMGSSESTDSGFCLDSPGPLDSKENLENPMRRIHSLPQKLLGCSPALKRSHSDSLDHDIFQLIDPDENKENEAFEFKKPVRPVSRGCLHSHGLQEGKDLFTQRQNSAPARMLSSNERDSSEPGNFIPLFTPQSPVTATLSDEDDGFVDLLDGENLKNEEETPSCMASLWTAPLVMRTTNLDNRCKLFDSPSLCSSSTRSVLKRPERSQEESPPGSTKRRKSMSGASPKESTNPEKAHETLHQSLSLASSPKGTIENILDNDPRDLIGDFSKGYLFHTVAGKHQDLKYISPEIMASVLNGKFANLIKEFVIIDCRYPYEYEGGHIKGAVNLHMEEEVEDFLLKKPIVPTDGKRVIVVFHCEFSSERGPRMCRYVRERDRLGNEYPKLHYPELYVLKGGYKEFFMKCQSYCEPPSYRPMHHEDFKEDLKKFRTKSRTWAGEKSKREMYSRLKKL
Method: (§2) For the inhibition assay of non-tyrosine phosphatases, human recombinant proteins were used (Sigma-Aldrich). The reactions were performed in black opaque 384-well microplates (PerkinElmer). To the solution of the tested complexes, an equal volume of a test solution of phosphatase was added. CDC25A were diluted in reaction buffer to the final concentration of 400 ng/mL as for tyrosine phosphatases (described in the section above), and PPA2 (final 0.5 U/mL) was diluted in 50 mM Tris-HCl, 0.05% Tween-20, and 125 µg/mL protease-free bovine serum albumin (pH 7.0). These solutions were dispensed using an automated injector. After 10 min, a solution of phosphate 6,8-difluoro-4-methyl (DiFMUP; Thermo Fisher Scientific) was added for the PPA2 sample until the final concentration 0.1 mM. For CDC25A samples, 3-O-methylfluorescein phosphate for the final concentration of 0.2 mM was added. Samples were incubated for 180 min at 23 °C, and then the measurements of fluorescence intensity (excitation 355 and emission 560 nm) were performed on a multifunctional plate reader POLARstar Omega (BMG Labtech). Assays were performed in triplicate. The results were expressed as percent of inhibition of untreated control (enzyme with vehicle solvent only).

PP2A = PP2A (Homo sapiens, UniProt P67775); assay: Inhibition of human recombinant non-tyrosine phosphatase PP2A (DiFMUP); format: biochemical
Method: as §2

hepatocytes HepG2 [1] = assay: Transport of [14C]-deoxy-D-glucose into insulin-resistant hepatocytes (TNF or oleic acid); format: cell-based, human; conditions: 10 µM; p ≤ 0.05
Method: After 24 h incubation, the tested complexes were added. After 2 h incubation at 37 °C in 5% CO2, the medium was changed to low-glucose medium (1000 mg/L), and the tested complexes were added again, with further incubation for 4 h being conducted.
For cells proceeded as above, 2-deoxy-D-[U-14C]-glucose (250–350 mCi/mmol, NEC720A, PerkinElmer) solution in KRB with a total activity of 0.03 mCi was added to each well. […] Non-specific radioactivity was subtracted from each result (cpm). Two independent experiments with triplicates were conducted.
Next, the compounds in fresh medium were added, further incubation was carried out for 24 h, and the scintillation proximity assay for the uptake of radiolabeled 2-deoxy-D-[U-14C]-glucose was conducted as described in the section above.

hepatocytes HepG2 [2] = conditions: 50 µM
Method: Experiments on the inhibition of hepatic gluconeogenesis in HepG2 hepatocytes by the vanadium complexes were carried out based on a previous description with some modifications [143]. Hepatocytes HepG2 in culture medium (as indicated above) were seeded on a half-area 96 microplate at the amount of 50,000 per well. After 16–24 h, cells were washed with PBS three times and one time with experimental medium (DMEM without glucose with 0.1% BSA, 2 µM L-glutamine, 15 mM HEPES, 1 mM sodium pyruvate, 10 mM calcium lactate, 100 IU/mL penicillin, and 100 mg/mL streptomycin). Cells were incubated in this medium for 3 h at 37 °C in 5% CO2, and the next medium was changed to the experimental medium with additional gluconeogenesis inductors: 10 µM dexamethasone, 100 µM 8-bromoadenosine 3′,5′-cyclic monophosphate sodium salt (8-Br-cAMP), and 500 µM 3-isobutyl-1-methylxanthine (IBMX). After adding the test compounds, the cells were incubated for 3 h at 37 °C in a 5% CO2 microplate, and then the supernatant was collected for glucose assay (as described in Section 4.2.6). Glucose synthesis was calculated as glucose concentration differences between experimental medium without cells and medium with cells after incubation with the tested compound. The final results were expressed as the percent of inhibition of glucose synthesis by cells incubated with solvent only.

myocytes C2C12 = system: myocytes C2C12; parameters: method as in doi:10.1016/j.poly.2020.114589; conditions: 50 µM; previously published by the authors; cited from earlier work
[3] = Viability of myocytes C2C12 after 24 h incubation (resazurin-based reagent); conditions: mouse, C2C12 myocytes
Method: Simultaneously with glucose consumption tests, the viability of myocytes C2C12 was examined due to their prolonged 24 h incubation with vanadium complexes.
Prolonged incubation of the cells with vanadium complexes, as was the case during the study of the effect on glucose consumption, more closely corresponds to the actual conditions of clinical use, also allowing for the identification of possible cytotoxic effects. […] A Resazurin-based reagent is reduced proportionally to the metabolic activity of cells as a result of the transference of electrons from NADPH+H^+, the amount of which strictly depends on glucose metabolism.

hepatocytes HepG2 [4] = conditions: 1 mM
Method: Hepatocytes HepG2, myocytes C2C12 (after 8 days differentiation), and adipocytes 3T3-L1 (after 11 days of differentiation) were cultured and maintained as described in the section above but pleated on a ScintiPlate TC 96-well microplate coated with a solid-phase scintillator (PerkinElmer). Hepatocytes and myocytes were washed, and culture medium was changed for medium with 0.5% BSA instead of serum. After 24 h incubation, the tested complexes were added. After 2 h incubation at 37 °C in 5% CO2, the medium was changed to low-glucose medium (1000 mg/L), and the tested complexes were added again, with further incubation for 4 h being conducted. […] Wortmannin at a final concentration of 200 nM (Sigma-Aldrich ) was used as a negative control. After that, cells were washed three times with cold KRB, and cytochalasin B (10 mM final) was added for several wells as a ‘‘no uptake” control, which proceeded as shown below.
For cells proceeded as above, 2-deoxy-D-[U-14C]-glucose (250–350 mCi/mmol, NEC720A, PerkinElmer) solution in KRB with a total activity of 0.03 mCi was added to each well. […] The radioactivity of samples was measured in a scintillation counter, MicroBeta Trilux 1450 (PerkinElmer). Non-specific radioactivity was subtracted from each result (cpm). […] The final results were expressed as percent of the control that contained solvent only instead of the tested compound.

hepatocytes HepG2 [5] = assay: Inhibition of hepatic gluconeogenesis (glucose synthesis); conditions: known inhibitors of gluconeogenesis; concentration not given
adipocytes 3T3-L1 = system: adipocytes 3T3-L1; parameters: method as in doi:10.1016/j.poly.2020.114589; conditions: 50 µM; previously published by the authors; cited from earlier work

T3 sequence (P29350 whole entry): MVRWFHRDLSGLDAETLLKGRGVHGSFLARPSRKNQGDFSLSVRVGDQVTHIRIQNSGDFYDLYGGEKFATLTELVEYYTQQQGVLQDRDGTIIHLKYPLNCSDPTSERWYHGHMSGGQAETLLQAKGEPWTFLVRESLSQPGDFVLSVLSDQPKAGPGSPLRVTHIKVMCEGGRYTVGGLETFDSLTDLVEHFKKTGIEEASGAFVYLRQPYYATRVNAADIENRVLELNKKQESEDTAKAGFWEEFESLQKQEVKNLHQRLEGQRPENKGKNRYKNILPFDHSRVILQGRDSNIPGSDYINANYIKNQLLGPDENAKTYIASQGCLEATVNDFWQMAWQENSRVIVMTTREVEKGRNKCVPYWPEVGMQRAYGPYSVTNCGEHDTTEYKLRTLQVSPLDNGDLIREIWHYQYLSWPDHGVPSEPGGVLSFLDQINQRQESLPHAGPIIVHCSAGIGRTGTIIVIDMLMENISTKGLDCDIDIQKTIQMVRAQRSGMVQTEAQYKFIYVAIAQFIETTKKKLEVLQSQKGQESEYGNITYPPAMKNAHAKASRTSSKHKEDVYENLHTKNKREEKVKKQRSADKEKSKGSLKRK
Chain of PP2A (P67775 whole entry): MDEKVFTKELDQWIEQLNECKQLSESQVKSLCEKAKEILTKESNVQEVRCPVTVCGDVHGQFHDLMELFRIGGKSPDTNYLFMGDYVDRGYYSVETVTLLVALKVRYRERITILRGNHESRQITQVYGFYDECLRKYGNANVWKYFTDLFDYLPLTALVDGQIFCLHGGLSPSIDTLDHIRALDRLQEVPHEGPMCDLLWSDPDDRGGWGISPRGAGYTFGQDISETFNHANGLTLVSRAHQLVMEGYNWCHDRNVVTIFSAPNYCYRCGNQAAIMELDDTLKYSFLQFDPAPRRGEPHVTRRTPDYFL

O=C(NN=Cc1cc(Br)ccc1[O-])c1ccc([N+](=O)[O-])cc1.O=[N+]([O-])c1ccc(C([O-])=NN=Cc2cc(Br)ccc2[O-])cc1.[V+3] [VC068, [V(L13)(HL13)]]
Inhibition of PTP1B, percentage of inhibition of the control (PTP1B): 40% | Log IC50 ± SD PTP1B (PTP1B; logarithm of IC50): −5.69 ± 0.02 | IC50 (PTP1B; read-out: IC50 PTP1B): 2.03 µM | IC50 (LAR): 0.619 µM | Inhibition of LAR, percentage of inhibition of the control (LAR): 33% | IC50 (SHP1): 0.517 µM | Inhibition of SHP1, percentage of inhibition of the control (SHP1): 70% | Log IC50 ± SD SHP1 (SHP1; logarithm of IC50): −6.29 ± 0.02 | IC50 (SHP2): 0.235 µM | Inhibition of SHP2, percentage of inhibition of the control (SHP2): 74% | Inhibition of CDC25A, percentage inhibition of control ± SD (CDC25A; 1 µM): 54 ± 3% | Inhibition of CDC25A, percentage inhibition of control ± SD (CDC25A; 10 µM): 62 ± 2% | Inhibition of PP2A, percentage inhibition of control ± SD (PP2A; 1 µM): 26 ± 12% | Inhibition of PP2A, percentage inhibition of control ± SD (PP2A; 10 µM): 55 ± 15% | Reversal of decreased [14C]-deoxy-D-glucose transport, insulin resistance induced by TNF (hepatocytes HepG2 [1]): reversed the decrease | Inhibition of glucose synthesis (gluconeogenesis) in hepatocytes (hepatocytes HepG2 [2]): 79 ± 18% | Transport of [14C]-deoxy-D-glucose into C2C12 myocytes, % of the control (myocytes C2C12): 218 ± 10 % of control

CN(CCOc1ccc(CC2SC(=O)NC2=O)cc1)c1ccccn1 (stereo not shown) [rosiglitazone, reference compound]
viability at 24 h, 50 µM [3]: 120 ± 7%

CN(C)C(=N)N=C(N)N [metformin]
Potentiation of [14C]-deoxy-D-glucose transport to hyperinsulinemia-induced insulin-resistant hepatocytes (hepatocytes HepG2 [4]): did not potentiate | Inhibition of glucose synthesis by hepatocytes, experimental control compounds (hepatocytes HepG2 [5]): showed inhibition of glucose synthesis

O=C(NN=Cc1cc(Br)ccc1[O][V]1[O]C(c2ccccc2O)=NN=Cc2cc(Br)ccc2[O]1)c1ccccc1O [VC029, [V(L7)(HL7)]]
Inhibition of PTP1B, percentage of inhibition of the control (PTP1B): 31% | Inhibition of LAR, percentage of inhibition of the control (LAR): 25% | Inhibition of SHP1, percentage of inhibition of the control (SHP1): 62% | Inhibition of SHP2, percentage of inhibition of the control (SHP2): 68% | Transport of [14C]-deoxy-D-glucose into 3T3-L1 adipocytes, % of control (adipocytes 3T3-L1): statistically significant activity
